Our source for the melting point values is US7662961B2, “N-phenylpyrazole derivatives as pesticides” (Merial Limited, priority 2004, dated 2010).

By melting point is commonly meant the temperature of the solid-liquid transition.

Take `CN(C(=S)N(C)c1c([S+]([O-])C(F)(F)F)c(C#N)nn1-c1c(Cl)cc(C(F)(F)F)cc1Cl)c1c([S+]([O-])C(F)(F)F)c(C#N)nn1-c1c(Cl)cc(C(F)(F)F)cc1Cl` (stereo not shown) [Compound 01-05, N,N′-Bis[3-cyano-1-(2,6-dichloro-4-trifluoromethylphenyl)-4-trifluoromethylsulfinylpyrazol-5-yl]-N,N′-dimethylthiourea]: the melting point is 118 °C.
